One test concerns K562. Put plainly: Cell proliferation assay (CellTiterGlo, 72 hour incubation), K562. It is filed as cell-based. The conditions noted are these: Homo sapiens, K562 cells, inhibition of cell proliferation, CellTiterGlo luminescence. How it is done:
(§1) Various cancer cell lines including K562 and COLO201, were treated with the compounds of the present disclosure to assess their effect on inhibiting cell proliferation.
(§2) For compound preparation, test compounds were diluted in duplicates from 10 mM stocks in 11-points 1:3 serial dilutions in DMSO. Then 125 nL test compounds at the serial dilutions were dispensed into 384-well assay plate using Echo dispenser. Staurosporine at 1 mM stock (5 μM final concentration) and DMSO (0.500 final concentration) were used as the positive and negative controls respectively.
(§3) To prepare cell lines, each frozen cell line stock was resuspended and grown in proper growth medium to a density of 40,000 cells/mL. Then 25 μL of cell suspension were dispensed into the assay plate to give seed cell density at 1,000 cells/well, compounds at 50 μM top concentration with 11-point serial dilutions, and 0.5% o DMSO final concentration. Assay plates were then centrifuged at 300 rpm for 1 minute and then incubated at 37° C., 9500 humidity, 500 CO2 for 72 hours. After the 72 hour incubation, the assay plate and its contents were equilibrated at room temperature for approximately 30 minutes. 25 μL of CellTiterGlo reagent was added to the assay plate and mixed for two minutes on an orbital shaker. Then after 10 minutes of incubation of assay plate at from temperature, the luminescence (RLU) signals in each well were recorded using Envision plate reader, then converted to percentage inhibition values using the signals in staurosporine and DMSO treated wells as the references. IC50 values were determined by curve fitting in Levenberg-Marquardt algorithm.

The next test relates to COLO201. Description: Cell proliferation assay (CellTiterGlo, 72 hour incubation), COLO201. Format: cell-based. The conditions noted are these: Homo sapiens, COLO 201, COLO201 cells, inhibition of cell proliferation, CellTiterGlo luminescence. The procedure:
as §1, §2, §3

Our source for the IC50 values is patent US20250026753A1, “FUSED TRIAZINONE DERIVATIVES AND METHODS OF USING THE SAME” (Rgenta Therapeutics, Inc., priority 2021, published 2025).

The structures appear in SMILES notation. Counter-ions that a name gives are not always drawn.

Broadly, the IC50 is the midpoint of a concentration-inhibition curve. A higher IC50 goes with lower potency. With `Cc1cc2cc(-c3nc(=O)n4cc(N5CCN[C@@H](C)C5)cc(F)c4n3)cc(C)n2n1` [Compound 131, 2-{2,7-dimethylpyrazolo[1,5-a]pyridin-5-yl}-9-fluoro-7-[(3S)-3-methylpiperazin-1-yl]-4H-pyrido[1,2-a][1,3,5]triazin-4-one], the IC50 with K562 and with COLO201 was < 1 µM each time.

As to `Cc1cn2cc(-c3nc(=O)n4cc(N5CCN(C)[C@@H](C)C5)cc(C)c4n3)cc(F)c2n1` [Compound 124, (S)-7-(3,4-dimethylpiperazin-1-yl)-2-(8-fluoro-2-methylimidazo[1,2-a]pyridin-6-yl)-9-methyl-4H-pyrido[1,2-a][1,3,5]triazin-4-one], in the test with K562, the IC50 is 1 to 10 µM.

For `Cc1cn2cc(-c3nc(=O)n4cc(N5CCN(C)CC5)ccc4n3)cc(F)c2n1` [Compound 103, 2-(8-fluoro-2-methylimidazo[1,2-a]pyridin-6-yl)-7-(4-methylpiperazin-1-yl)-4H-pyrido[1,2-a][1,3,5]triazin-4-one], the IC50 in the test on K562 and with COLO201 was 1 to 10 µM each time.

Consider `Cc1cn2cc(-c3nc(=O)n4cc(C5CCNC5)ccc4n3)cc(F)c2n1` (stereo not shown) [Compound 112, 2-(8-fluoro-2-methylimidazo[1,2-a]pyridin-6-yl)-7-(pyrrolidin-3-yl)-4H-pyrido[1,2-a][1,3,5]triazin-4-one hydrochloride], for which, in the test with K562, the IC50 lay in the range of 1 to 10 µM.

For the molecule `COc1cc(N2CCNCC2)cn2c(=O)nc(-c3cc(F)c4nc(C)cn4c3)nc12` [Compound 114, 2-(8-fluoro-2-methylimidazo[1,2-a]pyridin-6-yl)-9-methoxy-7-(piperazin-1-yl)-4H-pyrido[1,2-a][1,3,5]triazin-4-one hydrochloride], the IC50 in the test with K562 and in the test on COLO201 was 1 to 10 µM in each case.

As for `COc1c(N2CCNCC2)ccc2nc(-c3cc(F)c4nc(C)cn4c3)nc(=O)n12` [Compound 120, 2-(8-fluoro-2-methylimidazo[1,2-a]pyridin-6-yl)-6-methoxy-7-(piperazin-1-yl)-4H-pyrido[1,2-a][1,3,5]triazin-4-one formic acid], the IC50 with K562 and with COLO201 was ≥ 10 µM throughout.

Take `Cc1cn2cc(-c3nc(=O)n4cc(N5CC6CNCC6C5)ccc4n3)cc(F)c2n1` (stereo not shown) [Compound 106, 2-(8-fluoro-2-methylimidazo[1,2-a]pyridin-6-yl)-7-(hexahydropyrrolo[3,4-c]pyrrol-2(1H)-yl)-4H-pyrido[1,2-a][1,3,5]triazin-4-one hydrochloride]: the IC50 with K562 and in the test on COLO201 was ≥ 10 µM in each case.

As for `Cc1cc2cc(-c3nc(=O)n4cc(N5CCN[C@@H](C)C5)ccc4n3)cc(C)n2n1` [Compound 134, (S)-2-(2,7-dimethylpyrazolo[1,5-a]pyridin-5-yl)-7-(3-methylpiperazin-1-yl)-4H-pyrido[1,2-a][1,3,5]triazin-4-one], in the test on K562, the concentration for half-maximal inhibition (IC50) was 1 to 10 µM.

For the molecule `Cc1cn2cc(-c3nc(=O)n4cc(N5CCNCC5)ccc4n3)cc(C)c2n1` [Compound 126, 2-2,8-dimethylimidazo[1,2-a]pyridin-6-yl-7-(piperazin-1-yl)-4H-pyrido[1,2-a][1,3,5]triazin-4-one hydrochloride], the IC50 in the test on K562 lay in the range of 1 to 10 µM.

With `COc1cc2nc(-c3cc(F)c4nc(C)cn4c3)nc(=O)n2cc1N1CCNCC1` [Compound 119, 2-(8-fluoro-2-methylimidazo[1,2-a]pyridin-6-yl)-8-methoxy-7-(piperazin-1-yl)-4H-pyrido[1,2-a][1,3,5]triazin-4-one], the IC50 in the test on K562 and in the test with COLO201 was 1 to 10 µM in each case.

Turning to `Cc1cn2cc(-c3nc(=O)n4cc(N5CCNCC5)cc(F)c4n3)cc(F)c2n1` [Compound 110, 9-fluoro-2-(8-fluoro-2-methylimidazo[1,2-a]pyridin-6-yl)-7-(piperazin-1-yl)-4H-pyrido[1,2-a][1,3,5]triazin-4-one hydrochloride], the IC50 in the test with K562 and in the test with COLO201 was < 1 µM in each case.

Turning to `Cc1cn2cc(-c3nc(=O)n4cc(N5CCNCC5)ccc4n3)cc(F)c2n1` [Compound 99, 2-{8-fluoro-2-methylimidazo[1,2-a]pyridin-6-yl}-7-(piperazin-1-yl)-4H-pyrido[1,2-a][1,3,5]triazin-4-one], in the test with K562, the IC50 was < 1 µM.

`Cc1cn2cc(-c3nc(=O)n4cc(N5CCNC(C)(C)C5)ccc4n3)cc(F)c2n1` [Compound 109, 7-(3,3-dimethylpiperazin-1-yl)-2-(8-fluoro-2-methylimidazo [1,2-a]pyridin-6-yl)-4H-pyrido[1,2-a][1,3,5]triazin-4-one]: the IC50 in the test on K562 and in the test on COLO201 was < 1 µM each time.

For `Cc1cn2cc(-c3nc(=O)n4cc(N5CCN[C@@H](C)C5)ccc4n3)cc(F)c2n1` [Compound 101], the IC50 in the test with K562 and in the test with COLO201 was < 1 µM throughout.

`Cc1cn2cc(-c3nc(=O)n4cc(N5CCN[C@@H](C)C5)cc(C)c4n3)cc(C)c2n1` [Compound 123, (S)-2-(2,8-dimethylimidazo[1,2-a]pyridin-6-yl)-9-methyl-7-(3-methylpiperazin-1-yl)-4H-pyrido[1,2-a][1,3,5]triazin-4-one hydrochloride]: in the test on K562, the IC50 is 1 to 10 µM.

Take `Cc1cn2cc(-c3nc(=O)n4cc(N5CCNC(C)(C)C5)cc(C)c4n3)cc(F)c2n1` [Compound 125, 7-(3,3-dimethylpiperazin-1-yl)-2-(8-fluoro-2-methylimidazo [1,2-a]pyridin-6-yl)-9-methyl-4H-pyrido[1,2-a][1,3,5]triazin-4-one hydrochloride]: the half-inhibitory concentration (IC50) in the test on K562 is 1 to 10 µM.

Consider `CC[C@H]1CN(c2cc(F)c3nc(-c4cc(F)c5nc(C)cn5c4)nc(=O)n3c2)CCN1` [Compound 128, 7-[(3S)-3-ethylpiperazin-1-yl]-9-fluoro-2-{8-fluoro-2-methylimidazo[1,2-a]pyridin-6-yl}-4H-pyrido[1,2-a][1,3,5]triazin-4-one], for which, in the test with K562, the IC50 was < 1 µM.

In the test with K562, `Cc1cc2cc(-c3nc(=O)n4cc(N5CCN[C@@H](C)C5)cc(C)c4n3)cc(C)n2n1` [Compound 129, 2-{2,7-dimethylpyrazolo[1,5-a]pyridin-5-yl}-9-methyl-7-[(3S)-3-methylpiperazin-1-yl]-4H-pyrido[1,2-a][1,3,5]triazin-4-one] registered an IC50 of 1 to 10 µM.

`Cc1cc2cc(-c3nc(=O)n4cc(N5CCNC(C)(C)C5)cc(F)c4n3)cc(C)n2n1` [Compound 135, 7-(3,3-dimethylpiperazin-1-yl)-2-(2,7-dimethylpyrazolo[1,5-a]pyridin-5-yl)-9-fluoro-4H-pyrido[1,2-a][1,3,5]triazin-4-one] yielded an IC50 in the test on K562 of 1 to 10 µM.

For `Cc1cn2cc(-c3nc(=O)n4cc(N5CCNCC5)ccc4n3)cc(F)c2n1` [Compound 100, 2-(8-fluoro-2-methylimidazo[1,2-a]pyridin-6-yl)-7-(piperazin-1-yl)-4H-pyrido[1,2-a][1,3,5]triazin-4-one hydrochloride], the IC50 in the test on COLO201 was < 1 µM.

In the case of `Cc1cn2cc(-c3nc(=O)n4cc(N5CCNC6(CC6)C5)cc(C)c4n3)cc(F)c2n1` [Compound 132, 7-{4,7-diazaspiro[2.5]octan-7-yl}-2-{8-fluoro-2-methylimidazo[1,2-a]pyridin-6-yl}-9-methyl-4H-pyrido[1,2-a][1,3,5]triazin-4-one], in the test with K562, the IC50 lay in the range of 1 to 10 µM.

On to `Cc1cn2cc(-c3nc(=O)n4cc(N5CCNC(C)(C)C5)cc(F)c4n3)cc(F)c2n1` [Compound 130, 7-(3,3-dimethylpiperazin-1-yl)-9-fluoro-2-{8-fluoro-2-methylimidazo[1,2-a]pyridin-6-yl}-4H-pyrido[1,2-a][1,3,5]triazin-4-one], for which the IC50 in the test with K562 was < 1 µM.
